Consider two compounds from patent US20250064846A1, “TREATMENT AND PREVENTION OF TRIGEMINAL NEURALGIA” (THE JOHNS HOPKINS UNIVERSITY, priority 2022, published 2025).

Test [1] concerns NRF2 target genes. The test can be described thus: RNA-sequencing of primary human dermal fibroblasts. The test is classed as cell-based. The following applies: 48 hours, 0.25 μM JQ-1. The method, then: RNA-sequencing RNA sequencing was performed as previously described (See Shin, J. Y. et al. Sci Transl Med 11, eaaw0790 (2019)). To assess the transcriptional signature of JQ-1, total RNA was isolated from three independent human fibroblast lines after 48 hours of treatment with DMSO or 0.25 μM JQ-1 using TRizol and RNeasy isolation columns (Qiagen) as per the manufacturer's instructions. DNA was digested with DNase treatment. All samples had RNA integrity numbers 9.60 or higher as measured with an Agilent 2100 Bioanalyzer. mRNA was enriched by poly-A selection, prepped using an Illumina TruSeq mRNA sample preparation kit, and sequenced by Illumina HiSeq 2000.
Differential Gene Expression and Pathway Enrichment Analyses Differential gene expression analysis was performed using BioJupies 126.

Test [2] concerns NRF2 target genes. The following applies: corneal fibroblasts and monocytes; cited from earlier work.
Test [3] deals with NRF2 target genes. In words: Upregulation of canonical NRF2 target genes (no method given). The test is classed as cell-based.

Turning to `Cc1sc2c(c1C)C(c1ccc(Cl)cc1)=N[C@@H](CC(=O)OC(C)(C)C)c1nnc(C)n1-2` [JQ-1, (S)-tert-butyl 2-(4-(4-chlorophenyl)-2,3,9-trimethyl-6H-thieno[3,2-f][1,2,4]triazolo[4,3-a][1,4]diazepin-6-yl)acetate], in test [1], the “expression of canonical NRF2 target genes (NQO1, FTL, PRDX1, TXN, EGR1)” value is on record as “upregulated a number of canonical NRF2 target genes”; the “rank of the NRF2 pathway in gene ontology and genetic network analyses” value is on record as “second most upregulated pathway”. Moreover, the “upregulation of NQO1 and HMOX1” value in test [2] was “upregulates NQO1 and HMOX1”.
Take `C=C1C[C@@H]2[C@H](CC[C@]3(C)C(=O)CC[C@@H]23)[C@@]2(C)C=CC(=O)C=C12` [exemestane, 6-methylenandrosta-1,4-diene-3,17-dione]: the “induction of the canonical NRF2 target Nqo1” value in test [3] was “upregulated the canonical NRF2 target Ngo1”.
